Reference: EP4644383A1 (Jiangsu Yahong Meditech Co., Ltd., priority 2022, dated 2024)

How the values were obtained:
FGFR3 = target: T1, FGFR3 (Homo sapiens, UniProt P22607); experiment: FGFR3 kinase activity inhibition assay (LanthaScreen TR-FRET); assay type: biochemical; conditions: for IC50: FGFR3 kinase, TR-FRET, read-out: IC50 (nM) FGFR3; for Selectivity (X) FGFR1/FGFR3: ratio of IC50 FGFR1/FGFR3, selectivity towards FGFR3
T1 construct: FGFR3's cytoplasmic domain [436-806 (terminal) amino acids]; purchased Carna 08-135
T1 sequence (P22607 436-806): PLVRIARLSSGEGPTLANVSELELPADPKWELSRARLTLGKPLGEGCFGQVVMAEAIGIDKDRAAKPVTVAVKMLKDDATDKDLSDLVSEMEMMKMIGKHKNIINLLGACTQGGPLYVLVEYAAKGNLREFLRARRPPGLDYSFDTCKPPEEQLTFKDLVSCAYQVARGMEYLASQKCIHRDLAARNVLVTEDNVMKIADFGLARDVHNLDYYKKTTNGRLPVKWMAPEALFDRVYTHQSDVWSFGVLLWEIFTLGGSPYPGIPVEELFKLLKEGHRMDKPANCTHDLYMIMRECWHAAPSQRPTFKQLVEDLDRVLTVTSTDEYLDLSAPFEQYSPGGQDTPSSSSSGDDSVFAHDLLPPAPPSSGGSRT
Outline: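 Read-out is TR-FRET, with the 520 nm/495 nm emission ratio normalised to DMSO (max) and enzyme-free (min) controls. Enzyme was the FGFR3 cytoplasmic domain, residues 436-806. EDTA (10 mM) stopped the reaction, followed by 60 min at 22 °C before reading.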

FGFR1 = target: T2, FGFR1 (Homo sapiens, UniProt P11362); experiment: FGFR1 kinase activity inhibition assay (LanthaScreen TR-FRET); assay type: biochemical; conditions: FGFR1 kinase, TR-FRET; read-out: IC50 (nM) FGFR1
T2 construct: cytoplasmic domain [398-822 (terminal) amino acids]; purchased Carna 08-133
T2 sequence (P11362 398-822): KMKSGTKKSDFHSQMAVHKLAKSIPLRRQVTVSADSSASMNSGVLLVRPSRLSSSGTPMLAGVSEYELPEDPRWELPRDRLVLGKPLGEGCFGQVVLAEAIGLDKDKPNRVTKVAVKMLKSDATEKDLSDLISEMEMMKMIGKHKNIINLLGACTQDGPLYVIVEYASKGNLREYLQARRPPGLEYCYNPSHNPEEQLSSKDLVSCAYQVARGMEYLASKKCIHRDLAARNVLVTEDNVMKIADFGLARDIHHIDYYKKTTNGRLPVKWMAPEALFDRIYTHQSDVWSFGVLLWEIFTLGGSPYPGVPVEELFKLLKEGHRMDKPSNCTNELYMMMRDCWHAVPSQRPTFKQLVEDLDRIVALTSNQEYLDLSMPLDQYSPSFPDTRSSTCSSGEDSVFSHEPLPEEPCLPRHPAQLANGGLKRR
Outline: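 Emission ratio 520 nm/495 nm by TR-FRET after stopping reaction with 10 mM EDTA and 60 min incubation at 22°C. Inhibition normalized between no-enzyme (min) and DMSO (max) controls, then fitted to a four-parameter curve (Top, Bottom, HillSlope).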

Row | SMILES | IC50 (FGFR3) | Selectivity (X) FGFR1/FGFR3 (FGFR3) | IC50 (FGFR1) | Selectivity (X) FGFR4/FGFR3 (FGFR3; ratio of IC50 FGFR4/FGFR3, selectivity towards FGFR3)
1 | CC(Oc1ccc2[nH]nc(-c3cnn(C)c3)c2c1)c1nccn2nccc12 (stereo not shown) [Example 176, 4-(1-((3-(1-methyl-1H-pyrazol-4-yl)-1H-indazol-5-yl)oxy)ethyl)py razolo[1,5-a]pyrazine] | 1 to 10 nM | A (A represents 1 ≤ multiple X<20) | 10 to 100 nM | –
2 | CC(Oc1ccc2[nH]nc(-c3cnn(C4CN(C(=N)N)C4)c3)c2c1)c1cccc2nccnc12 (stereo not shown) [Example 177, 3-(4-(5-(1-(quinoxalin-5-yl)ethoxy)-1H-indazol-3-yl)-1H-pyrazol-1-yl)azetidine-1-carboximidamide] | 1 to 10 nM | B (B represents 20 ≤ multiple X<50) | 10 to 100 nM | –
3 | CC(Oc1ccc2[nH]nc(-c3cnn(C4CN(C(=O)N(C)C)C4)c3)c2c1)c1cccc2nccnc12 (stereo not shown) [Example 178, N,N-dimethyl-3-(4-(5-(1-(quinoxalin-5-yl)ethoxy)-1H-indazol-3-yl)-1H-pyrazol-1-yl)azetidine-1-carboxamide] | < 1 nM | B (B represents 20 ≤ multiple X<50) | 1 to 10 nM | –
4 | CC(Oc1ccc2[nH]nc(-c3cnn(CCCS(N)(=O)=O)c3)c2c1)c1cccc2nccnc12 (stereo not shown) [Example 179, 3-(4-(5-(1-(quinoxalin-5-yl)ethoxy)-1H-indazol-3-yl)-1H-pyrazol-1-yl)propane-1-sulfonamide] | < 1 nM | B (B represents 20 ≤ multiple X<50) | 10 to 100 nM | –
5 | CC(Oc1ccc2[nH]nc(-c3cnn(C4CN(C(=O)CC#N)C4)c3)c2c1)c1cccc2nccnc12 (stereo not shown) [Example 180, 3-oxo-3-(3-(4-(5-(1-(quinoxalin-5-yl)ethoxy)-1H-indazol-3-yl)-1H-pyrazol-1-yl)azetidin-1-yl)propionitrile] | 1 to 10 nM | A (A represents 1 ≤ multiple X<20) | 1 to 10 nM | –
6 | CC(Oc1ccc2[nH]nc(-c3cnn(C)c3)c2c1)c1cccn2ncc(C#N)c12 (stereo not shown) [Example 186, 4-(1-((3-(1-methyl-1H-pyrazol-4-yl)-1H-indazol-5-yl)oxy)ethyl)py razolo[1,5-a]pyridine-3-carbonitrile] | < 1 nM | A (A represents 1 ≤ multiple X<20) | 1 to 10 nM | A (A represents 1 ≤ multiple X<20)
7 | Cc1cc(C(C)Oc2ccc3[nH]nc(-c4cnn(C5CN(C(=O)CO)C5)c4)c3c2)c2cccnc2c1 (stereo not shown) [Example 192, 2-hydroxy-1-(3-(4-(5-(1-(7-methylquinolin-5-yl)ethoxy)-1H-indazol-3-yl)-1-pyrazol-1-yl)azetidin-1-yl)ethan-1-one] | < 1 nM | B (B represents 20 ≤ multiple X<50) | 10 to 100 nM | –
8 | CNCC(=O)N1CC(n2cc(-c3n[nH]c4ccc(OC(C)c5cccc6nccnc56)cc34)cn2)C1 (stereo not shown) [Example 193, 2-(methylamino)-1-(3-(4-(5-(1-(quinoxalin-5-yl)ethoxy)-1H-indazol-3-yl)-1H-pyrazol-1-yl)azetidin-1-yl)ethan-1-one] | < 1 nM | A (A represents 1 ≤ multiple X<20) | 1 to 10 nM | –
9 | CC(Oc1ccc2[nH]nc(-c3cnn(C4CC(N(C)C(=O)C(C)(C)N)C4)c3)c2c1)c1cccc2nccnc12 (stereo not shown) [Example 196, 2-amino-N,2-dimethyl-N-(3-(4-(5-(1-(quinoxalin-5-yl)ethoxy)-1H-indazol-3-yl)-1H-pyrazol-1-yl)cyclobutyl)propanamide] | < 1 nM | B (B represents 20 ≤ multiple X<50) | 10 to 100 nM | –
10 | CC(Oc1ccc2[nH]nc(-c3cnn(C4CC(N(C)C(=O)C(C)(C)O)C4)c3)c2c1)c1cccc2nccnc12 (stereo not shown) [Example 197, 2-hydroxy-N,2-dimethyl-N-(3-(4-(5-(1-(quinoxalin-5-yl)ethoxy)-1H-indazol-3-yl)-1H-pyrazol-1-yl)cyclobutyl)prop anamide] | < 1 nM | B (B represents 20 ≤ multiple X<50) | 10 to 100 nM | –
11 | CC(Oc1ccc2[nH]nc(-c3cnn(C4CC(N(C)S(C)(=O)=O)C4)c3)c2c1)c1cccc2nccnc12 (stereo not shown) [Example 198, N-methyl-N-(3-(4-(5-(1-(quinoxalin-5-yl)ethoxy)-1H-indazol-3-yl)-1H-pyrazol-1-yl)cyclobutyl)methanesulfonamide] | < 1 nM | B (B represents 20 ≤ multiple X<50) | 10 to 100 nM | –
12 | CC(=O)N(C)C1CC(n2cc(-c3n[nH]c4ccc(OC(C)c5cccc6nccnc56)cc34)cn2)C1 (stereo not shown) [Example 199, N-methyl-N-(3-(4-(5-(1-(quinoxalin-5-yl)ethoxy)-1H-indazol-3-yl)-1H-pyrazol-1-yl)cyclobutyl)acet amide] | < 1 nM | A (A represents 1 ≤ multiple X<20) | 10 to 100 nM | –
13 | CC(Oc1ccc2[nH]nc(-c3cnn(CC4CC(=O)N(C)C4)c3)c2c1)c1cccc2nccnc12 (stereo not shown) [Example 200, 1-methyl-4-((4-(5-(1-(quinoxalin-5-yl)ethoxy)-1H-indazol-3-yl)-1H-pyrazol-1-yl)methyl)pyrrolidin-2-one] | 1 to 10 nM | B (B represents 20 ≤ multiple X<50) | 10 to 100 nM | –
14 | CC(Oc1ccc2[nH]nc(-c3cnn(C4CN(C(=O)NC5CC5)C4)c3)c2c1)c1cccc2nccnc12 (stereo not shown) [Example 201, N-cyclopropyl-3-(4-(5-(1-(quinoxalin-5-yl)ethoxy)-1H-indazol-3-yl)-1H-pyrazol-1-yl)azetidine-1-carboxamide] | < 1 nM | A (A represents 1 ≤ multiple X<20) | 1 to 10 nM | –
15 | CC(Oc1ccc2[nH]nc(-c3cnn(C4CC(S(C)(=N)=O)C4)c3)c2c1)c1cccc2nccnc12 (stereo not shown) [Example 202, imino(methyl)(3-(4-(5-(1-(quinoxalin-5-yl)ethoxy)-1H-indazol-3-yl)-1H-pyrazol-1-yl)cyclobutyl)-sulfanone] | < 1 nM | A (A represents 1 ≤ multiple X<20) | 1 to 10 nM | –
16 | CC(Oc1ccc2[nH]nc(-c3cnn(C4CN(C(=O)C5(N)CC5)C4)c3)c2c1)c1cccc2nccnc12 (stereo not shown) [Example 205, (1-aminocyclopropy 1)(3-(4-(5-(1-(quinoxalin-5-yl)ethoxy)-1H-indazol-3-yl)-1H-pyrazol-1-yl)azetidin-1-yl)methanone] | < 1 nM | B (B represents 20 ≤ multiple X<50) | 1 to 10 nM | –
17 | CC(Oc1ccc2[nH]nc(-c3cnn(C4CN(C(=O)C(C)(C)O)C4)c3)c2c1)c1cc(Cl)cc2ncccc12 (stereo not shown) [Example 206, 1-(3-(4-(5-(1-(7-chloroquinolin-5-yl)ethoxy)-1H-indazol-3-yl)-1H-pyrazol-1-yl)azetidin-1-yl)-2-hydroxy-2-methylpropan-1-one] | 1 to 10 nM | C (C represents 50 ≤ multiple X<100) | 10 to 100 nM | –
18 | CC(Oc1ccc2[nH]nc(-c3cnn(C4CN(C(=O)CO)C4)c3)c2c1)c1cc(Cl)cc2nccnc12 (stereo not shown) [Example 207, 1-(3-(4-(5-(1-(7-chloroquinoxalin-5-yl)ethoxy)-1H-indazol-3-yl)-1H-pyrazol-1-yl)azetidin-1-yl)-2-hydroxyethan-1-one] | < 1 nM | B (B represents 20 ≤ multiple X<50) | 10 to 100 nM | –
19 | CC(Oc1ccc2[nH]nc(-c3cnn(C4CN(C(=O)C(C)(C)N)C4)c3)c2c1)c1c(C(F)F)ccc2ncccc12 (stereo not shown) [Example 208, 2-amino-1-(3-(4-(5-(1-(6-(difluoromethyl)quinoline-5-yl)ethoxy)-1H-indazol-3-yl)-1H-pyrazol-1-yl)azetidin-1-yl)-2-methylpropan-1-one] | < 1 nM | B (B represents 20 ≤ multiple X<50) | 10 to 100 nM | –
20 | CC(Oc1ccc2[nH]nc(-c3cnn(C4CN(C(=O)C(C)(C)O)C4)c3)c2c1)c1cc(Cl)cc2nccnc12 (stereo not shown) [Example 209, 1-(3-(4-(5-(1-(7-chloroquinoxalin-5-yl)ethoxy)-1H-indazol-3-yl)-1H-pyrazol-1-yl)azetidin-1-yl)-2-hydroxy-2-methylpropan-1-one] | < 1 nM | B (B represents 20 ≤ multiple X<50) | 10 to 100 nM | –
21 | CC(Oc1ccc2[nH]nc(-c3cnn(C4CN(C(=O)C(C)(C)N)C4)c3)c2c1)c1cc(Cl)cc2nccnc12 (stereo not shown) [Example 210, 2-amino-1-(3-(4-(5-(1-(7-chloroquinoxalin-5-yl)ethoxy)-1H-indazol-3-yl)-1-pyrazol-1-yl)azetidin-1-yl)-2-methylpropan-1-one] | < 1 nM | A (A represents 1 ≤ multiple X<20) | 1 to 10 nM | –
22 | CC(Oc1ccc2[nH]nc(-c3cnn(C4CN(C(=O)C(C)(C)N)C4)c3)c2c1)c1cc(Cl)cc2ncccc12 (stereo not shown) [Example 211, 2-amino-1-(3-(4-(5-(1-(7-chloroquinolin-5-yl)ethoxy)-1H-indazol-3-yl)-1-pyrazol-1-yl)azetidin-1-yl)-2-methylpropan-1-one] | < 1 nM | B (B represents 20 ≤ multiple X<50) | 10 to 100 nM | –
23 | CC(Oc1ccc2[nH]nc(-c3cnn(C4CN(CC(N)=O)C4)c3)c2c1)c1cccc2nccnc12 (stereo not shown) [Example 214, 2-(3-(4-(5-(1-(quinoxalin-5-yl)ethoxy)-1H-indazol-3-yl)-1H-pyrazol-1-yl)azetidin-1-yl)acetamide] | < 1 nM | B (B represents 20 ≤ multiple X<50) | 10 to 100 nM | –
